Test results reported in patent publication US20050197350A1, “Novel quinoline, tetrahydroquinazoline, and pyrimidine derivatives and methods of treatment related to the use thereof” (TAISHO PHARMACEUTICAL CO., LTD., priority 2003, published 2005).

Test system: MCH receptors
Assay: MCH receptor activity class (method not given)
Conditions: class by percent of control at 10^-7 M or IC50

Which class does the source give for `CN(C)c1cc(N[C@H]2CC[C@@H](CNCc3ccsc3)CC2)nc2ccccc12` [compound 1183] here?
Its class is 3 (Class 3 The value of percent of control at 10^−7 M was more than 60% or the value of IC50 was more than 200 nM.).

With `Cc1cccc(CNC[C@H]2CC[C@@H](Nc3cc(N(C)C)c4ccccc4n3)CC2)c1` [compound 1184] as the compound, how does the class read?
Its class is 3 (Class 3 The value of percent of control at 10^−7 M was more than 60% or the value of IC50 was more than 200 nM.).

For `Cc1ccccc1CNC[C@H]1CC[C@@H](Nc2cc(N(C)C)c3ccccc3n2)CC1` [compound 1185], which class is on record?
The class was 3 (Class 3 The value of percent of control at 10^−7 M was more than 60% or the value of IC50 was more than 200 nM.).

With `Cc1ccc(CNC[C@H]2CC[C@@H](Nc3cc(N(C)C)c4ccccc4n3)CC2)cc1` [compound 1186] as the compound, how does the class read?
The class was 3 (Class 3 The value of percent of control at 10^−7 M was more than 60% or the value of IC50 was more than 200 nM.).

With `CN(C)c1cc(N[C@H]2CC[C@@H](CNCc3cc(Cl)cc(Cl)c3)CC2)nc2ccccc12` [compound 1187] as the compound, how does the class read?
Its class is 3 (Class 3 The value of percent of control at 10^−7 M was more than 60% or the value of IC50 was more than 200 nM.).

With `COc1cc(CNC[C@H]2CC[C@@H](Nc3cc(N(C)C)c4ccccc4n3)CC2)cc2c1OCO2` [compound 1188] as the compound, how does the class read?
Its class is 2 (Class 2: The value of percent of control at 10^−7 M was from 40% to 60% or the value of IC′50 was from 50 nM to 200 nM.).

Which class does the source give for `COc1cc(CNC[C@H]2CC[C@@H](Nc3cc(N(C)C)c4ccccc4n3)CC2)cc(Br)c1OC` [compound 1189] here?
Its class is 3 (Class 3 The value of percent of control at 10^−7 M was more than 60% or the value of IC50 was more than 200 nM.).

For `COc1ccc(CNC[C@H]2CC[C@@H](Nc3cc(N(C)C)c4ccccc4n3)CC2)cc1C` [compound 1190], which class is on record?
Its class is 3 (Class 3 The value of percent of control at 10^−7 M was more than 60% or the value of IC50 was more than 200 nM.).

For `COc1cc(Br)c(CNC[C@H]2CC[C@@H](Nc3cc(N(C)C)c4ccccc4n3)CC2)cc1OC` [compound 1191], which class is on record?
Its class is 3 (Class 3 The value of percent of control at 10^−7 M was more than 60% or the value of IC50 was more than 200 nM.).

With `Cc1oc(-c2ccccc2)cc1CNC[C@H]1CC[C@@H](Nc2cc(N(C)C)c3ccccc3n2)CC1` [compound 1192] as the compound, how does the class read?
The class was 3 (Class 3 The value of percent of control at 10^−7 M was more than 60% or the value of IC50 was more than 200 nM.).

How did the class turn out when `COc1ccc(CNC[C@H]2CC[C@@H](Nc3cc(N(C)C)c4ccccc4n3)CC2)cc1OC` [compound 1193] was run?
Its class is 3 (Class 3 The value of percent of control at 10^−7 M was more than 60% or the value of IC50 was more than 200 nM.).

How did the class turn out when `Cc1cc(CNC[C@H]2CC[C@@H](Nc3cc(N(C)C)c4ccccc4n3)CC2)ccc1O` [compound 1194] was run?
Its class is 3 (Class 3 The value of percent of control at 10^−7 M was more than 60% or the value of IC50 was more than 200 nM.).

How did the class turn out when `COc1cc(C)c(CNC[C@H]2CC[C@@H](Nc3cc(N(C)C)c4ccccc4n3)CC2)cc1C` [compound 1195] was run?
The class was 3 (Class 3 The value of percent of control at 10^−7 M was more than 60% or the value of IC50 was more than 200 nM.).

With `COc1cccc(CNC[C@H]2CC[C@@H](Nc3cc(N(C)C)c4ccccc4n3)CC2)c1O` [compound 1196] as the compound, how does the class read?
The class was 3 (Class 3 The value of percent of control at 10^−7 M was more than 60% or the value of IC50 was more than 200 nM.).

How did the class turn out when `CN(C)c1cc(N[C@H]2CC[C@@H](CNCc3cc(C(F)(F)F)cc(Cl)c3F)CC2)nc2ccccc12` [compound 1197] was run?
Its class is 3 (Class 3 The value of percent of control at 10^−7 M was more than 60% or the value of IC50 was more than 200 nM.).

For `CN(C)c1cc(N[C@H]2CC[C@@H](CNCc3cc(F)cc(C(F)(F)F)c3)CC2)nc2ccccc12` [compound 1198], which class is on record?
The class was 3 (Class 3 The value of percent of control at 10^−7 M was more than 60% or the value of IC50 was more than 200 nM.).

How did the class turn out when `COc1cc(CNC[C@H]2CC[C@@H](Nc3cc(N(C)C)c4ccccc4n3)CC2)cc(F)c1O` [compound 1199] was run?
The class was 3 (Class 3 The value of percent of control at 10^−7 M was more than 60% or the value of IC50 was more than 200 nM.).
